Results as given in PMC4792470, “A Novel Manno-Oligosaccharide Binding Protein Identified in Alkaliphilic Bacillus sp. N16-5 Is Involved in Mannan Utilization” (PLoS ONE, 2016).

Molecular target: T1, ManH (Bacillus sp. N16-5, UniProt A0A140EH86)
T1 construct: without N-terminal signal peptide; pET-28a NcoI/BamHI, native stop codon in primer; E. coli BL21(DE3); anion exchange; primers give N-terminus (M)DENTGGN and C-terminus SLEGIE; full-length starts MNKKLWL by primer
T1 sequence (A0A140EH86 17-435): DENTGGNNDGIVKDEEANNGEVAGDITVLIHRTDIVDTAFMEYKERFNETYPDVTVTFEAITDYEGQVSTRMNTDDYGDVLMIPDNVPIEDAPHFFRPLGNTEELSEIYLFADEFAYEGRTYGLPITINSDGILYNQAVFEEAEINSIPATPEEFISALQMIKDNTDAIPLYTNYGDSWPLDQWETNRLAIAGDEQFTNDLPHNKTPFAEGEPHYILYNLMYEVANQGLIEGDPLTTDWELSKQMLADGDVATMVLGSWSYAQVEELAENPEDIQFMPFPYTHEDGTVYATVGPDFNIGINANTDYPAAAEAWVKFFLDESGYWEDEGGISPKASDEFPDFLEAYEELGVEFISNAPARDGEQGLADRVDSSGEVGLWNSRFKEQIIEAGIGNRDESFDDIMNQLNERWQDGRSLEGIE
Test: isothermal titration calorimetry
Assay type: binding
Details: 20 mM Tris-HCl pH 8.0, 200 mM NaCl, 30 °C; independent-site model
Text: isothermal titration calorimetry on ManH

Compound	Kd (1/Ka, μM) [µM]
OC[C@H]1O[C@@H](O[C@H]2[C@H](O)[C@H](O)[C@H](O[C@H]3[C@H](O)[C@H](O)C(O)O[C@@H]3CO)O[C@@H]2CO)[C@@H](O)[C@@H](O)[C@@H]1O (stereo partly shown) [mannotriose]	3.8
galactosyl-mannotriose	19.4
OC[C@H]1O[C@@H](O[C@H]2[C@H](O)[C@H](O)[C@H](O[C@H]3[C@H](O)[C@H](O)[C@H](O[C@H]4[C@H](O)[C@H](O)[C@H](O[C@H]5[C@H](O)[C@H](O)C(O)O[C@@H]5CO)O[C@@H]4CO)O[C@@H]3CO)O[C@@H]2CO)[C@@H](O)[C@@H](O)[C@@H]1O (stereo partly shown) [mannopentose]	0.8
OC[C@H]1O[C@@H](O[C@H]2[C@H](O)[C@H](O)[C@H](O[C@H]3[C@H](O)[C@H](O)[C@H](O[C@H]4[C@H](O)[C@H](O)C(O)O[C@@H]4CO)O[C@@H]3CO)O[C@@H]2CO)[C@@H](O)[C@@H](O)[C@@H]1O (stereo partly shown) [mannotetraose]	2.2
